{
  "source": "ChEMBL document CHEMBL1201862",
  "about": "“PubChem BioAssay data set” (2004)",
  "assay_in_all_cases": "NCI-60 cell line screen, 48 h",
  "key": {"[1]": {"tested_on": "ACHN"}, "[2]": {"tested_on": "KM12"}, "[3]": {"tested_on": "UO-31"}, "[4]": {"tested_on": "SW-620"}, "[5]": {"tested_on": "NCI-H226"}, "[6]": {"tested_on": "UACC-257"}, "[7]": {"tested_on": "Malme-3M"}, "[8]": {"tested_on": "SF-539"}, "[9]": {"tested_on": "HCT-116"}, "[10]": {"tested_on": "A498"}, "[11]": {"tested_on": "CAKI-1"}, "[12]": {"tested_on": "SK-MEL-28"}, "[13]": {"tested_on": "BT-549"}, "[14]": {"tested_on": "CCRF-CEM"}, "[15]": {"tested_on": "HCT-15"}, "[16]": {"tested_on": "MOLT-4"}, "[17]": {"tested_on": "NCI/ADR-RES"}, "[18]": {"tested_on": "LOX IMVI"}, "[19]": {"tested_on": "SF-268"}, "[20]": {"tested_on": "SNB-19"}, "[21]": {"tested_on": "UACC-62"}, "[22]": {"tested_on": "HOP-92"}, "[23]": {"tested_on": "RXF 393"}, "[24]": {"tested_on": "EKVX"}, "[25]": {"tested_on": "DU-145"}, "[26]": {"tested_on": "SNB-75"}, "[27]": {"tested_on": "OVCAR-3"}, "[28]": {"tested_on": "MCF7"}, "[29]": {"tested_on": "U-251"}, "[30]": {"tested_on": "PC-3"}, "[31]": {"tested_on": "MDA-MB-435"}, "[32]": {"tested_on": "OVCAR-5"}, "[33]": {"tested_on": "SK-OV-3"}, "[34]": {"tested_on": "IGROV-1"}, "[35]": {"tested_on": "Hs-578T"}, "[36]": {"tested_on": "SF-295"}, "[37]": {"tested_on": "K562"}, "[38]": {"tested_on": "A549"}, "[39]": {"tested_on": "M14"}, "[40]": {"tested_on": "HCC 2998"}, "[41]": {"tested_on": "NCI-H23"}, "[42]": {"tested_on": "TK-10"}, "[43]": {"tested_on": "MDA-MB-231"}, "[44]": {"tested_on": "HL-60"}, "[45]": {"tested_on": "786-0"}, "[46]": {"tested_on": "HT-29"}, "[47]": {"tested_on": "MDA-N"}, "[48]": {"tested_on": "NCI-H522"}, "[49]": {"tested_on": "SK-MEL-5"}, "[50]": {"tested_on": "OVCAR-8"}, "[51]": {"tested_on": "OVCAR-4"}, "[52]": {"tested_on": "SK-MEL-2"}, "[53]": {"tested_on": "HOP-62"}, "[54]": {"tested_on": "SN12C"}, "[55]": {"tested_on": "COLO 205"}, "[56]": {"tested_on": "RPMI-8226"}, "[57]": {"tested_on": "SR"}, "[58]": {"tested_on": "T47D"}, "[59]": {"tested_on": "NCI-H460"}},
  "note": "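Dose response: 5 concentrations. Exposure: 48 h. Format: 96-well plates. Endpoint: linear interpolation; highest concentration if not reached. GI50 is the concentration that inhibits growth by half.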 Calls of active or inactive are those of the source. No stated cut-off is given here; in the data, active = GI50 up to about 1.1 µM and inactive = higher.",
  "data": [
    {"smiles": "COC(=O)/C=C(/C=C1/C(C#N)=C(N)N(c2ccc(Cl)cc2)C1(C)/C(=C\\C(=O)OC)C(=O)OC)C(=O)OC", "note": "(centres undefined)", "values": [
      {"measurement": "GI50", "setting": "[1]", "value": "22.6 µM (inactive)"},
      {"measurement": "GI50", "setting": "[2]", "value": "17.2 µM (inactive)"},
      {"measurement": "GI50", "setting": "[3]", "value": "17.9 µM (inactive)"},
      {"measurement": "GI50", "setting": "[4]", "value": "15.9 µM (inactive)"},
      {"measurement": "GI50", "setting": "[5]", "value": "24.1 µM (inactive)"},
      {"measurement": "GI50", "setting": "[6]", "value": "18.9 µM (inactive)"},
      {"measurement": "GI50", "setting": "[7]", "value": "25.1 µM (inactive)"},
      {"measurement": "GI50", "setting": "[8]", "value": "15.4 µM (inactive)"},
      {"measurement": "GI50", "setting": "[9]", "value": "15.8 µM (inactive)"},
      {"measurement": "GI50", "setting": "[10]", "value": "44.8 µM (inactive)"},
      {"measurement": "GI50", "setting": "[11]", "value": "22.8 µM (inactive)"},
      {"measurement": "GI50", "setting": "[12]", "value": "18.9 µM (inactive)"},
      {"measurement": "GI50", "setting": "[13]", "value": "15.7 µM (inactive)"},
      {"measurement": "GI50", "setting": "[14]", "value": "16.3 µM (inactive)"},
      {"measurement": "GI50", "setting": "[15]", "value": 18.5, "unit": "µM"},
      {"measurement": "GI50", "setting": "[16]", "value": "23.3 µM (inactive)"},
      {"measurement": "GI50", "setting": "[17]", "value": "16.8 µM (inactive)"},
      {"measurement": "GI50", "setting": "[18]", "value": "17.1 µM (inactive)"},
      {"measurement": "GI50", "setting": "[19]", "value": "19.5 µM (inactive)"},
      {"measurement": "GI50", "setting": "[20]", "value": "41.9 µM (inactive)"},
      {"measurement": "GI50", "setting": "[21]", "value": "12.9 µM (inactive)"},
      {"measurement": "GI50", "setting": "[22]", "value": "5.71 µM (inactive)"},
      {"measurement": "GI50", "setting": "[23]", "value": "19.2 µM (inactive)"},
      {"measurement": "GI50", "setting": "[24]", "value": "43.9 µM (inactive)"},
      {"measurement": "GI50", "setting": "[25]", "value": "35.5 µM (inactive)"},
      {"measurement": "GI50", "setting": "[26]", "value": "25.6 µM (inactive)"},
      {"measurement": "GI50", "setting": "[27]", "value": "18.4 µM (inactive)"},
      {"measurement": "GI50", "setting": "[28]", "value": "20.7 µM (inactive)"},
      {"measurement": "GI50", "setting": "[29]", "value": "26.1 µM (inactive)"},
      {"measurement": "GI50", "setting": "[30]", "value": "12.9 µM (inactive)"},
      {"measurement": "GI50", "setting": "[31]", "value": "18.5 µM (inactive)"},
      {"measurement": "GI50", "setting": "[32]", "value": "21.3 µM (inactive)"},
      {"measurement": "GI50", "setting": "[33]", "value": "33.7 µM (inactive)"},
      {"measurement": "GI50", "setting": "[34]", "value": "21.5 µM (inactive)"},
      {"measurement": "GI50", "setting": "[35]", "value": "42.8 µM (inactive)"},
      {"measurement": "GI50", "setting": "[36]", "value": "22.8 µM (inactive)"},
      {"measurement": "GI50", "setting": "[37]", "value": "23.1 µM (inactive)"},
      {"measurement": "GI50", "setting": "[38]", "value": "28.2 µM (inactive)"},
      {"measurement": "GI50", "setting": "[39]", "value": "19.5 µM (inactive)"},
      {"measurement": "GI50", "setting": "[40]", "value": "20 µM (inactive)"},
      {"measurement": "GI50", "setting": "[41]", "value": "19.2 µM (inactive)"},
      {"measurement": "GI50", "setting": "[42]", "value": "29.4 µM (inactive)"},
      {"measurement": "GI50", "setting": "[43]", "value": "29.2 µM (inactive)"},
      {"measurement": "GI50", "setting": "[44]", "value": "13.7 µM (inactive)"},
      {"measurement": "GI50", "setting": "[45]", "value": "18.1 µM (inactive)"},
      {"measurement": "GI50", "setting": "[46]", "value": "17 µM (inactive)"},
      {"measurement": "GI50", "setting": "[47]", "value": "16.2 µM (inactive)"},
      {"measurement": "GI50", "setting": "[48]", "value": "5.69 µM (inactive)"},
      {"measurement": "GI50", "setting": "[49]", "value": "15.1 µM (inactive)"},
      {"measurement": "GI50", "setting": "[50]", "value": "17.3 µM (inactive)"},
      {"measurement": "GI50", "setting": "[51]", "value": "18.9 µM (inactive)"},
      {"measurement": "GI50", "setting": "[52]", "value": "32.1 µM (inactive)"},
      {"measurement": "GI50", "setting": "[53]", "value": "35.9 µM (inactive)"},
      {"measurement": "GI50", "setting": "[54]", "value": "21.6 µM (inactive)"},
      {"measurement": "GI50", "setting": "[55]", "value": "15 µM (inactive)"},
      {"measurement": "GI50", "setting": "[56]", "value": "25.1 µM (inactive)"},
      {"measurement": "GI50", "setting": "[57]", "value": "28.5 µM (inactive)"},
      {"measurement": "GI50", "setting": "[58]", "value": "18.3 µM (inactive)"},
      {"measurement": "GI50", "setting": "[59]", "value": "19.5 µM (inactive)"}
    ]}
  ]
}
